Reference: patent US11020398B2, “Amino-pyrrolopyrimidinone compounds and methods of use thereof” (ArQule, Inc., priority 2016, dated 2021)

Each compound was assayed against phosphorylated form of full length BTK (active BTK) (Homo sapiens (Human), UniProt Q06187) (assay: Mobility shift assay (MSA, Caliper LabChip), active BTK assay). Conditions: Assay type B (MSA using active BTK).
Type: biochemical
Method: The active BTK assay consists of phosphorylated form of full length BTK. […] The enzyme inhibitor complexes is incubated, before the kinase activation reaction is initiated.
Mobility Shift Assay (MSA)
The active BTK assay consisted of phosphorylated form of full length BTK. […] The enzyme inhibitor complexes was incubated for 30 minutes at the room temperature and the kinase activation reaction was initiated by the addition of 1 μM Srctide peptide substrate and […].

phosphorylated form of full length BTK (active BTK), sequence (Q06187 whole entry): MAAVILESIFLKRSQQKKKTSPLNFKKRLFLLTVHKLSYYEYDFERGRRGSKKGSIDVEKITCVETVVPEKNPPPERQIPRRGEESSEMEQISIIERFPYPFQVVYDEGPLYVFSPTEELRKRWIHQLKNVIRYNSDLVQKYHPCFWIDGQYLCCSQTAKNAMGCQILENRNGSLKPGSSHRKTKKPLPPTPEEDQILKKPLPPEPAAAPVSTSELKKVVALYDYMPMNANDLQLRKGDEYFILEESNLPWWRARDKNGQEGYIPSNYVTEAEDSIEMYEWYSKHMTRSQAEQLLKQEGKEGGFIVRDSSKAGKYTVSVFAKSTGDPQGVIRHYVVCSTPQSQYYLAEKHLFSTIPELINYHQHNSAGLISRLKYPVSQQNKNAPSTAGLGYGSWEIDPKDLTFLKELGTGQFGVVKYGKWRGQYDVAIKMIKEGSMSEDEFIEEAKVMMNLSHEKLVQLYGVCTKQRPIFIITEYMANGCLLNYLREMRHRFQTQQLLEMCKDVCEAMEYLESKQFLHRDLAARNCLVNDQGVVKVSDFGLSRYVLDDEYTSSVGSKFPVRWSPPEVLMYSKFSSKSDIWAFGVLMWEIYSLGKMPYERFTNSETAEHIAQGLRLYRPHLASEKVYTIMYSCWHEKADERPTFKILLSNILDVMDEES

Row | IC50 [nM] | Structure (SMILES)
1 | 17 | N[C@H]1C[C@@H](Nc2ncnc3[nH]cc(C(=O)c4ccc(Oc5ccccc5)cc4)c23)C1 [Compound I-190, (4-((cis-3-aminocyclobutyl)amino)-7H-pyrrolo[2,3-d]pyrimidin-5-yl)(4-phenoxyphenyl)methanone]
2 | 37 | N[C@H]1C[C@H](Nc2ncnc3[nH]cc(C(=O)c4ccc(Oc5ccccc5)cc4)c23)C1 [Compound I-191, (4-((trans-3-aminocyclobutyl)amino)-7H-pyrrolo[2,3-d]pyrimidin-5-yl)(4-phenoxyphenyl)methanone]
3 | 4.4 | CC(=O)N[C@@H]1CC[C@@H](Nc2ncnc3[nH]cc(C(=O)c4ccc(Oc5ccccc5)cc4)c23)C1 [Compound I-192, N-((1R,3R)-3-((5-(4-phenoxybenzoyl)-7H-pyrrolo[2,3-d]pyrimidin-4-yl)amino)cyclopentyl)acetamide]
4 | 1.2 | C[C@H](O)C(=O)N[C@H]1CC[C@@H](Nc2ncnc3[nH]cc(C(=O)c4ccc(Oc5ccccc5)cc4Cl)c23)CC1 [Compound I-193, (S)—N-(cis-4-((5-(2-chloro-4-phenoxybenzoyl)-7H-pyrrolo[2,3-d]pyrimidin-4-yl)amino)cyclohexyl)-2-hydroxypropanamide]
5 | 1.5 | CC(C)(O)C(=O)N[C@H]1CC[C@@H](Nc2ncnc3[nH]cc(C(=O)c4ccc(Oc5ccccc5)cc4Cl)c23)CC1 [Compound I-194, N-(cis-4-((5-(2-chloro-4-phenoxybenzoyl)-7H-pyrrolo[2,3-d]pyrimidin-4-yl)amino)cyclohexyl)-2-hydroxy-2-methylpropanamide]
6 | 2.2 | CC(=O)N[C@H](C)[C@@H]1CC[C@@H](Nc2ncnc3[nH]cc(C(=O)c4ccc(Oc5ccccc5)cc4Cl)c23)CO1 [Compound I-195, N—((R)-1-((2S,5R)-5-((5-(2-chloro-4-phenoxybenzoyl)-7H-pyrrolo[2,3-d]pyrimidin-4-yl)amino)tetrahydro-2H-pyran-2-yl)ethyl)acetamide]
7 | 3.2 | CC(=O)N[C@H]1C[C@@H](Nc2ncnc3[nH]cc(C(=O)c4ccc(Oc5ccccc5)cc4)c23)C1 [Compound I-196, N-(cis-3-((5-(4-phenoxybenzoyl)-7H-pyrrolo[2,3-d]pyrimidin-4-yl)amino)cyclobutyl)acetamide]
8 | 1.6 | Cc1cc(Oc2ccccc2)ccc1C(=O)c1c[nH]c2ncnc(N[C@@H]3CC[C@@H]([C@@H](C)O)OC3)c12 [Compound I-197, (4-(((3R,6S)-6-((R)-1-hydroxyethyl)tetrahydro-2H-pyran-3-yl)amino)-7H-pyrrolo[2,3-d]pyrimidin-5-yl)(2-methyl-4-phenoxyphenyl)methanone]
9 | 2.6 | CC(=O)N[C@@H](C)[C@@H]1CC[C@@H](Nc2ncnc3[nH]cc(C(=O)c4ccc(Oc5ccccc5)cc4)c23)CO1 [Compound I-198, N-((S)-1-((2S,5R)-5-((5-(4-phenoxybenzoyl)-7H-pyrrolo[2,3-d]pyrimidin-4-yl)amino)tetrahydro-2H-pyran-2-yl)ethyl)acetamide]
10 | 6.8 | CC(=O)N[C@H]1C[C@H](Nc2ncnc3[nH]cc(C(=O)c4ccc(Oc5ccccc5)cc4)c23)C1 [Compound I-199, N-(trans-3-((5-(4-phenoxybenzoyl)-7H-pyrrolo[2,3-d]pyrimidin-4-yl)amino)cyclobutyl)acetamide]
11 | 1.4 | C[C@]1(O)CC[C@@H](Nc2ncnc3[nH]cc(C(=O)c4ccc(Oc5ccccc5)cc4Cl)c23)CC1 [Compound I-200, (2-chloro-4-phenoxyphenyl)(4-((cis-4-hydroxy-4-methylcyclohexyl)amino)-7H-pyrrolo[2,3-d]pyrimidin-5-yl)methanone]
12 | 1.5 | C[C@]1(O)CC[C@H](Nc2ncnc3[nH]cc(C(=O)c4ccc(Oc5ccccc5)cc4Cl)c23)CC1 [Compound I-201, (2-chloro-4-phenoxyphenyl)(4-((trans-4-hydroxy-4-methylcyclohexyl)amino)-7H-pyrrolo[2,3-d]pyrimidin-5-yl)methanone]
13 | 1 | C[C@H](O)C(=O)N[C@H]1CC[C@@H](Nc2ncnc3[nH]cc(C(=O)c4ccc(Oc5ccccc5)cc4)c23)CC1 [Compound I-202, (S)-2-hydroxy-N-(cis-4-((5-(4-phenoxybenzoyl)-7H-pyrrolo[2,3-d]pyrimidin-4-yl)amino)cyclohexyl)propanamide]
14 | 1.4 | CC(C)(O)C(=O)N[C@H]1CC[C@@H](Nc2ncnc3[nH]cc(C(=O)c4ccc(Oc5ccccc5)cc4)c23)CC1 [Compound I-203, 2-hydroxy-2-methyl-N-(cis-4-((5-(4-phenoxybenzoyl)-7H-pyrrolo[2,3-d]pyrimidin-4-yl)amino)cyclohexyl)propanamide]
15 | 1.1 | CC(=O)N[C@@H](C)[C@@H]1CC[C@@H](Nc2ncnc3[nH]cc(C(=O)c4ccc(Oc5ccccc5)cc4C)c23)CO1 [Compound I-204, N-((S)-1-((2S,5R)-5-((5-(2-methyl-4-phenoxybenzoyl)-7H-pyrrolo[2,3-d]pyrimidin-4-yl)amino)tetrahydro-2H-pyran-2-yl)ethyl)acetamide]
16 | 1.6 | CC(=O)NC[C@@H]1CC[C@@H](Nc2ncnc3[nH]cc(C(=O)c4ccc(Oc5ccccc5)cc4)c23)CO1 [Compound I-205, N-(((2S,5R)-5-((5-(4-phenoxybenzoyl)-7H-pyrrolo[2,3-d]pyrimidin-4-yl)amino)tetrahydro-2H-pyran-2-yl)methyl)acetamide]
17 | 1.8 | C[C@@H](O)C(=O)N[C@H]1CC[C@@H](Nc2ncnc3[nH]cc(C(=O)c4ccc(Oc5ccccc5)cc4)c23)CC1 [Compound I-206, (R)-2-hydroxy-N-(cis-4-((5-(4-phenoxybenzoyl)-7H-pyrrolo[2,3-d]pyrimidin-4-yl)amino)cyclohexyl)propanamide]
18 | 4.1 | O=C(c1ccc(Oc2ccccc2)cc1Cl)c1c[nH]c2ncnc(N[C@H]3C[C@H](CO)C3)c12 [Compound I-207, (2-chloro-4-phenoxyphenyl)(4-((trans-3-(hydroxymethyl)cyclobutyl)amino)-7H-pyrrolo[2,3-d]pyrimidin-5-yl)methanone]
19 | 3.1 | C[C@H](O)C(=O)N[C@@H](C)[C@@H]1CC[C@@H](Nc2ncnc3[nH]cc(C(=O)c4ccc(Oc5ccccc5)cc4Cl)c23)CO1 [Compound I-208, (S)—N—((S)-1-((2S,5R)-5-((5-(2-chloro-4-phenoxybenzoyl)-7H-pyrrolo[2,3-d]pyrimidin-4-yl)amino)tetrahydro-2H-pyran-2-yl)ethyl)-2-hydroxypropanamide]
20 | 4 | C[C@H](O)C(=O)N[C@@H](C)[C@@H]1CC[C@@H](Nc2ncnc3[nH]cc(C(=O)c4ccc(Oc5ccccc5)cc4)c23)CO1 [Compound I-209, (S)-2-hydroxy-N-((S)-1-((2S,5R)-5-((5-(4-phenoxybenzoyl)-7H-pyrrolo[2,3-d]pyrimidin-4-yl)amino)tetrahydro-2H-pyran-2-yl)ethyl)propanamide]
21 | 1.9 | C[C@H](O)C(=O)NC[C@@H]1CC[C@@H](Nc2ncnc3[nH]cc(C(=O)c4ccc(Oc5ccccc5)cc4Cl)c23)CO1 [Compound I-210, (S)—N-(((2S,5R)-5-((5-(2-chloro-4-phenoxybenzoyl)-7H-pyrrolo[2,3-d]pyrimidin-4-yl)amino)tetrahydro-2H-pyran-2-yl)methyl)-2-hydroxypropanamide]
22 | 2.9 | C[C@H](O)C(=O)NC[C@@H]1CC[C@@H](Nc2ncnc3[nH]cc(C(=O)c4ccc(Oc5ccccc5)cc4)c23)CO1 [Compound I-211, (S)-2-hydroxy-N-(((2S,5R)-5-((5-(4-phenoxybenzoyl)-7H-pyrrolo[2,3-d]pyrimidin-4-yl)amino)tetrahydro-2H-pyran-2-yl)methyl)propanamide]
23 | 2.5 | C[C@H](NC(=O)[C@@H](C)O)[C@@H]1CC[C@@H](Nc2ncnc3[nH]cc(C(=O)c4ccc(Oc5ccccc5)cc4Cl)c23)CO1 [Compound I-213, (R)—N—((S)-1-((2S,5R)-5-((5-(2-chloro-4-phenoxybenzoyl)-7H-pyrrolo[2,3-d]pyrimidin-4-yl)amino)tetrahydro-2H-pyran-2-yl)ethyl)-2-hydroxypropanamide]
24 | 3.9 | C[C@H](NC(=O)[C@@H](C)O)[C@@H]1CC[C@@H](Nc2ncnc3[nH]cc(C(=O)c4ccc(Oc5ccccc5)cc4)c23)CO1 [Compound I-215, (R)-2-hydroxy-N-((S)-1-((2S,5R)-5-((5-(4-phenoxybenzoyl)-7H-pyrrolo[2,3-d]pyrimidin-4-yl)amino)tetrahydro-2H-pyran-2-yl)ethyl)propanamide]
25 | 1.9 | C[C@@H](O)C(=O)NC[C@@H]1CC[C@@H](Nc2ncnc3[nH]cc(C(=O)c4ccc(Oc5ccccc5)cc4Cl)c23)CO1 [Compound I-216, (R)—N-(((2S,5R)-5-((5-(2-chloro-4-phenoxybenzoyl)-7H-pyrrolo[2,3-d]pyrimidin-4-yl)amino)tetrahydro-2H-pyran-2-yl)methyl)-2-hydroxypropanamide]
26 | 3.2 | C[C@@H](O)C(=O)NC[C@@H]1CC[C@@H](Nc2ncnc3[nH]cc(C(=O)c4ccc(Oc5ccccc5)cc4)c23)CO1 [Compound I-217, (R)-2-hydroxy-N-(((2S,5R)-5-((5-(4-phenoxybenzoyl)-7H-pyrrolo[2,3-d]pyrimidin-4-yl)amino)tetrahydro-2H-pyran-2-yl)methyl)propanamide]
